Reference: PubChem BioAssay AID330 (DTP/NCI, 2004)
Where “and” joins values, the source holds several entries; their conditions need not be identical. Equal entries are not always repeated. Inconclusive results and toxic doses are left out.

Test system: P388 leukemia ip, CD2F1 mice, survival T/C
Test: NCI In Vivo Anticancer Drug Screen. Data for tumor model P388 Leukemia (intraperitoneal) in CD2F1 (CDF1) mice
Details: endpoint: median survival time, higher = longer survival
Procedure, shortened: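 Mice carrying the transplanted tumor received test compound or vehicle. Survival was recorded in each group, and the value is the treated-group measurement divided by that of the vehicle-treated control group.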

[1] = dose: 50.0 mg/kg/injection, schedule: Q01DX005 (ip), vehicle: saline with Tween-80
[2] = dose: 25.0 mg/kg/injection, schedule: Q01DX009 (ip), vehicle: saline
[3] = dose: 50.0 mg/kg/injection, schedule: Q01DX009 (ip), vehicle: saline
[4] = dose: 100.0 mg/kg/injection, schedule: Q01DX009 (ip), vehicle: saline
[5] = dose: 200.0 mg/kg/injection, schedule: Q01DX009 (ip), vehicle: saline
[6] = dose: 60.0 mg/kg/injection, schedule: Q01DX005 (ip), vehicle: saline with Tween-80
[7] = dose: 120.0 mg/kg/injection, schedule: Q01DX005 (ip), vehicle: saline with Tween-80
[8] = dose: 240.0 mg/kg/injection, schedule: Q01DX005 (ip), vehicle: saline with Tween-80
[9] = dose: 6.25 mg/kg/injection, schedule: Q01DX005 (ip), vehicle: saline with Tween-80
[10] = dose: 12.5 mg/kg/injection, schedule: Q01DX005 (ip), vehicle: saline with Tween-80
[11] = dose: 100.0 mg/kg/injection, schedule: Q01DX005 (ip), vehicle: saline with Tween-80
[12] = dose: 50.0 mg/kg/injection, schedule: Q01DX005 (ip), vehicle: Klucel (hydroxypropylcellulose) (HPC)
[13] = dose: 100.0 mg/kg/injection, schedule: Q01DX005 (ip), vehicle: Klucel (hydroxypropylcellulose) (HPC)
[14] = dose: 200.0 mg/kg/injection, schedule: Q01DX005 (ip), vehicle: Klucel (hydroxypropylcellulose) (HPC)
[15] = dose: 25.0 mg/kg/injection, schedule: Q01DX005 (ip), vehicle: Klucel (hydroxypropylcellulose) (HPC)
[16] = dose: 50.0 mg/kg/injection, schedule: Q01DX009 (ip), vehicle: saline with Tween-80
[17] = dose: 200.0 mg/kg/injection, schedule: Q01DX005 (ip), vehicle: saline with Tween-80
[18] = dose: 25.0 mg/kg/injection, schedule: Q01DX005 (ip), vehicle: saline with Tween-80

Cc1cccc(/C=N/N2CCN(C(c3ccccc3)c3ccccc3)CC2)n1
T/C (dose: 100.0 mg/kg/injection, schedule: Q01DX001 (ip), vehicle: Klucel (hydroxypropylcellulose) (HPC)): 100 % of control | T/C (dose: 200.0 mg/kg/injection, schedule: Q01DX001 (ip), vehicle: Klucel (hydroxypropylcellulose) (HPC)): 97 % of control | T/C (dose: 400.0 mg/kg/injection, schedule: Q01DX001 (ip), vehicle: Klucel (hydroxypropylcellulose) (HPC)): 100 % of control

Cn1cc(N)c2ccccc2c1=O
T/C [1]: 103 % of control

O=[N+]([O-])c1cc(NC(=S)SC2CCCCC2)ccc1Cl
T/C [2]: 107 % of control and 108 % of control | T/C [3]: 100 % of control and 104 % of control and 93 % of control | T/C [4]: 102 % of control and 110 % of control and 90 % of control | T/C [5]: 100 % of control and 104 % of control and 122 % of control

O=C(NC(Cc1ccc(O)cc1)C(=O)O)C(=O)c1c[nH]c2ccc([N+](=O)[O-])cc12 (stereo unspecified)
T/C [6]: 97 % of control | T/C [7]: 97 % of control | T/C [8]: 89 % of control

c1ccc2c3c(c4c(c2c1)CN(C1CCCCC1)CO4)OCN(C1CCCCC1)C3
T/C [9]: 106 % of control | T/C [10]: 107 % of control and 112 % of control | T/C [1]: 116 % of control

c1ccc(-c2[nH]c3ccccc3c2-c2c(-c3ccccc3)[nH]c3ccccc23)cc1
T/C [3]: 100 % of control | T/C [4]: 96 % of control | T/C [5]: 98 % of control

CN(C)C1C(=O)C(C(N)=O)=C(O)C2(O)C(=O)C3=C(O)c4c(O)cccc4C(C)(O)C3C(O)C12.[Cl][Sb]([Cl])[Cl] (stereo unspecified)
T/C [1]: 113 % of control | T/C [11]: 99 % of control

CC(=O)C(=Cc1ccc(Cl)cc1)C(C)=O
T/C [1]: 97 % of control | T/C [11]: 101 % of control

O=c1oc2c(-c3c(O)c(=O)oc4ccccc34)cc(O)cc2s1
T/C [12]: 96 % of control | T/C [13]: 103 % of control | T/C [14]: 104 % of control

COC1CC(=O)C2(C)C3CCC4(C)C(C(C)C5CC(C)=C(CO)C(=O)O5)CCC4C3CC3OC32C1O (stereo unspecified)
T/C (dose: 10.12 mg/kg/injection, schedule: Q01DX009 (ip), vehicle: saline + alcohol): 105 % of control | T/C (dose: 20.25 mg/kg/injection, schedule: Q01DX009 (ip), vehicle: saline + alcohol): 96 % of control | T/C (dose: 40.5 mg/kg/injection, schedule: Q01DX009 (ip), vehicle: saline + alcohol): 94 % of control

O=C1CCCCCC2=NC12 (stereo unspecified)
T/C (dose: 6.25 mg/kg/injection, schedule: Q01DX005 (ip), vehicle: Klucel (hydroxypropylcellulose) (HPC)): 105 % of control and 90 % of control | T/C (dose: 12.5 mg/kg/injection, schedule: Q01DX005 (ip), vehicle: Klucel (hydroxypropylcellulose) (HPC)): 103 % of control and 109 % of control | T/C [15]: 113 % of control and 118 % of control | T/C [12]: 116 % of control

CNCCCC12CC(c3ccccc31)c1ccccc12
T/C [16]: 94 % of control

CC1CCC(n2cnc3c(Cl)ncnc32)O1 (stereo unspecified)
T/C [15]: 97 % of control | T/C [12]: 103 % of control | T/C [13]: 110 % of control | T/C [14]: 112 % of control | T/C (dose: 400.0 mg/kg/injection, schedule: Q01DX005 (ip), vehicle: Klucel (hydroxypropylcellulose) (HPC)): 114 % of control

Oc1c(C(c2ccccc2)N2CCOCC2)ccc2ccccc12 (stereo unspecified)
T/C [16]: 109 % of control | T/C (dose: 100.0 mg/kg/injection, schedule: Q01DX009 (ip), vehicle: saline with Tween-80): 109 % of control | T/C (dose: 200.0 mg/kg/injection, schedule: Q01DX009 (ip), vehicle: saline with Tween-80): 104 % of control

CCOC(=O)c1cccc2c([N+](=O)[O-])c([N+](=O)[O-])cc(C(=O)OCC)c12
T/C (dose: 100.0 mg/kg/injection, schedule: Q01DX001 (ip), vehicle: saline with Tween-80): 99 % of control | T/C (dose: 200.0 mg/kg/injection, schedule: Q01DX001 (ip), vehicle: saline with Tween-80): 102 % of control | T/C (dose: 400.0 mg/kg/injection, schedule: Q01DX001 (ip), vehicle: saline with Tween-80): 99 % of control

CC(=O)c1c[nH]c(=O)c2cc3c(cc12)OCO3
T/C [6]: 95 % of control | T/C [7]: 91 % of control

CN(N=O)C(=O)NCCSSCCNC(=O)N(C)N=O
T/C (dose: 20.0 mg/kg/injection, schedule: Q04DX003 (ip), vehicle: saline with Tween-80): 115 % of control | T/C (dose: 40.0 mg/kg/injection, schedule: Q01DX009 (ip), vehicle: saline with Tween-80): 177 % of control | T/C (dose: 80.0 mg/kg/injection, schedule: Q04DX003 (ip), vehicle: saline with Tween-80): 155 % of control

C/C=C/COc1cc2c(cc1C(C)c1ccc(OC)cc1)OCO2 (stereo unspecified)
T/C [1]: 107 % of control | T/C [11]: 106 % of control | T/C [17]: 119 % of control

CCOC(=O)/C=C/C(=O)NNC(=O)OC(C)(C)C
T/C (dose: 12.5 mg/kg/injection, schedule: Q01DX009 (ip), vehicle: other): 99 % of control | T/C (dose: 25.0 mg/kg/injection, schedule: Q01DX009 (ip), vehicle: other): 93 % of control | T/C (dose: 50.0 mg/kg/injection, schedule: Q01DX009 (ip), vehicle: other): 101 % of control | T/C (dose: 100.0 mg/kg/injection, schedule: Q01DX009 (ip), vehicle: other): 119 % of control | T/C (dose: 200.0 mg/kg/injection, schedule: Q01DX009 (ip), vehicle: other): 108 % of control

Cc1cc(N2CCOCC2)nc(N2CCOCC2)c1C#N
T/C [9]: 100 % of control | T/C [10]: 108 % of control | T/C [18]: 99 % of control

OC1(c2nccc3ccccc23)CCN(CCc2ccccc2)CC1
T/C (dose: 12.5 mg/kg/injection, schedule: Q01DX009 (ip), vehicle: saline): 102 % of control | T/C [2]: 97 % of control | T/C [16]: 87 % of control | T/C [3]: 108 % of control

COc1ccc(C2=NC(=O)OC2(C)C)cc1
T/C (dose: 60.0 mg/kg/injection, schedule: Q01DX005 (ip), vehicle: Klucel (hydroxypropylcellulose) (HPC)): 110 % of control | T/C (dose: 120.0 mg/kg/injection, schedule: Q01DX005 (ip), vehicle: Klucel (hydroxypropylcellulose) (HPC)): 102 % of control | T/C (dose: 240.0 mg/kg/injection, schedule: Q01DX005 (ip), vehicle: Klucel (hydroxypropylcellulose) (HPC)): 108 % of control

O=C1NN=C(c2ccccc2)SC1c1ccccc1 (stereo unspecified)
T/C [10]: 93 % of control | T/C [18]: 95 % of control | T/C [1]: 90 % of control and 92 % of control | T/C [17]: 90 % of control

CC(=O)Oc1c2ccsc2cc2sccc12
T/C (dose: 12.5 mg/kg/injection, schedule: Q04DX003 (ip), vehicle: Klucel (hydroxypropylcellulose) (HPC)): 95 % of control | T/C (dose: 25.0 mg/kg/injection, schedule: Q04DX003 (ip), vehicle: Klucel (hydroxypropylcellulose) (HPC)): 94 % of control | T/C (dose: 50.0 mg/kg/injection, schedule: Q04DX003 (ip), vehicle: Klucel (hydroxypropylcellulose) (HPC)): 94 % of control | T/C (dose: 100.0 mg/kg/injection, schedule: Q04DX003 (ip), vehicle: Klucel (hydroxypropylcellulose) (HPC)): 100 % of control

CCOc1ccc(NC(=O)c2c(C)nc(-c3ccccc3)nc2Nc2ccc(Cl)cc2)cc1
T/C [6]: 90 % of control | T/C [7]: 90 % of control | T/C [8]: 94 % of control

C#CC(C)(C)Oc1ccc2c(=O)c(-c3ccc(OC)c(OC)c3)coc2c1
T/C [6]: 90 % of control | T/C [7]: 92 % of control | T/C [8]: 89 % of control

CC(=O)OCC12CC(c3ccoc3)OC3CCC4C(=O)OC(CC1C)C4(C)C32 (stereo unspecified)
T/C (dose: 5.25 mg/kg/injection, schedule: Q01DX005 (ip), vehicle: Klucel (hydroxypropylcellulose) (HPC)): 106 % of control | T/C (dose: 10.5 mg/kg/injection, schedule: Q01DX005 (ip), vehicle: Klucel (hydroxypropylcellulose) (HPC)): 95 % of control | T/C (dose: 21.0 mg/kg/injection, schedule: Q01DX005 (ip), vehicle: Klucel (hydroxypropylcellulose) (HPC)): 100 % of control | T/C (dose: 42.0 mg/kg/injection, schedule: Q01DX005 (ip), vehicle: Klucel (hydroxypropylcellulose) (HPC)): 93 % of control

CCCCOP(O)(=S)OCCCC.[Y]
T/C (dose: 25.0 mg/kg/injection, schedule: Q01DX009 (ip), vehicle: saline + alcohol): 98 % of control | T/C (dose: 50.0 mg/kg/injection, schedule: Q01DX009 (ip), vehicle: saline + alcohol): 99 % of control | T/C (dose: 100.0 mg/kg/injection, schedule: Q01DX009 (ip), vehicle: saline + alcohol): 98 % of control | T/C (dose: 100.0 mg/kg/injection, schedule: Q04DX002 (ip), vehicle: saline with Tween-80): 102 % of control | T/C (dose: 200.0 mg/kg/injection, schedule: Q01DX009 (ip), vehicle: saline + alcohol): 91 % of control | T/C (dose: 200.0 mg/kg/injection, schedule: Q04DX002 (ip), vehicle: saline with Tween-80): 96 % of control | T/C (dose: 400.0 mg/kg/injection, schedule: Q04DX002 (ip), vehicle: saline with Tween-80): 96 % of control
